Assay results as given in ChEMBL document CHEMBL1132710, “Antineoplastic agents. 410. Asymmetric hydroxylation of trans-combretastatin A-4” (1999).
Values after ≈ are worked out from the molar mass of the structure shown.

How the values were obtained:
Assay type in all cases: functional
Neisseria gonorrhoeae = test: Antimicrobial activity against Neisseria gonorrhoeae
DU-145 = test: Compound was evaluated against Human cell line prostate DU-145
FaDu = test: Compound was evaluated against Human cell line pharynx FADU
NCI-H460 = test: Compound was evaluated against Human cell line lung-NSC NCI-H460
P388 = test: Compound was evaluated against P388 mouse Leukemia cell line; conditions: read-out: ED50 (the source's name)
SK-N-SH = test: Compound was evaluated against Human cell line neuroblast SK-N-SH
SW-1736 = test: Compound was evaluated against Human cell line thyroid SW1736
A498 = test: Compound was evaluated against Human cell line renal A498
BXPC-3 = test: Compound was evaluated against Human cell line pancreas BXPC-3
SF-295 = test: Compound was evaluated against Human cell line CNS SF-295
KM-20L2 = test: Compound was evaluated against Human cell line colon KM20L2
OVCAR-3 = test: Compound was evaluated against Human cell line ovarian OVCAR-3
SK-MEL-5 = test: Compound was evaluated against Human cell line melanoma SK-MEL-5
Staphylococcus aureus = test: Antimicrobial activity against Staphylococcus aureus

Row | SMILES | MIC (Neisseria gonorrhoeae) | GI50 (DU-145) | GI50 (FaDu) | GI50 (NCI-H460) | EC50 (P388) | GI50 (SK-N-SH) | GI50 (SW-1736) | GI50 (A498) | GI50 (BXPC-3) | GI50 (SF-295) | GI50 (KM-20L2) | GI50 (OVCAR-3) | GI50 (SK-MEL-5) | MIC (Staphylococcus aureus)
1 | COc1ccc(/C=C\c2cc(OC)c(OC)c(OC)c2)cc1OP(=O)([O-])O.[Na+] | 100 ug disk-1 |  |  |  |  |  |  |  |  |  |  |  |  | 
2 | COc1ccc([C@@H](O)Cc2cc(OC)c(OC)c(OC)c2)cc1O |  | 7.6 µg/mL (≈ 22.7 µM) | 4.8 µg/mL (≈ 14.4 µM) | 9 µg/mL (≈ 26.9 µM) | 32.9 µg/mL (≈ 98.4 µM) | > 10 µg/mL | > 10 µg/mL |  |  |  |  |  |  | 
3 | COc1ccc(CCc2cc(OC)c(OC)c(OC)c2)c(O)c1O | 25 ug disk-1 |  |  |  |  |  |  |  |  |  |  |  |  | 
4 | COc1ccc([C@@H](O)[C@H](O)c2cc(OC)c(OC)c(OC)c2)cc1O |  | 3.5 µg/mL (≈ 9.99 µM) | 2.1 µg/mL (≈ 5.99 µM) | 4.4 µg/mL (≈ 12.6 µM) | 19 µg/mL (≈ 54.2 µM) | 1.5 µg/mL (≈ 4.28 µM) | 6.1 µg/mL (≈ 17.4 µM) | > 10 µg/mL | > 10 µg/mL | 5.7 µg/mL (≈ 16.3 µM) | 8.2 µg/mL (≈ 23.4 µM) | 4.5 µg/mL (≈ 12.8 µM) | 4.9 µg/mL (≈ 14 µM) | 
5 | COc1ccc([C@H](O)[C@@H](O)c2cc(OC)c(OC)c(OC)c2)cc1O |  | 2.1 µg/mL (≈ 5.99 µM) | 0.6 µg/mL (≈ 1.71 µM) | 2.5 µg/mL (≈ 7.14 µM) | 2 µg/mL (≈ 5.71 µM) | 0.28 µg/mL (≈ 0.799 µM) | 1.8 µg/mL (≈ 5.14 µM) | 0.91 µg/mL (≈ 2.6 µM) | 3.9 µg/mL (≈ 11.1 µM) | 0.52 µg/mL (≈ 1.48 µM) | 0.52 µg/mL (≈ 1.48 µM) | 0.38 µg/mL (≈ 1.08 µM) | 0.7 µg/mL (≈ 2 µM) | 
6 | COc1ccc(/C=C\c2cc(OC)c(OC)c(OC)c2)cc1O [COMBRETASTATIN A4] | 50 ug disk-1 | 0.00076 µg/mL (≈ 0.0024 µM) | 0.00065 µg/mL (≈ 0.00205 µM) | 0.00056 µg/mL (≈ 0.00177 µM) | 0.00027 µg/mL (≈ 0.000853 µM) | 0.00026 µg/mL (≈ 0.000822 µM) | 0.00071 µg/mL (≈ 0.00224 µM) |  | 0.39 µg/mL (≈ 1.23 µM) | < 0.001 µg/mL | 0.061 µg/mL (≈ 0.193 µM) | < 0.001 µg/mL | 0.0002 µg/mL (≈ 0.000632 µM) | 
7 | COc1ccc(/C=C\c2cc(OC)c(OC)c(OC)c2)c(O)c1O [COMBRETASTATIN A-1] | 50 ug disk-1 |  |  |  |  |  |  |  |  |  |  |  |  | 100 ug disk-1
